In US6399633B1, “Use of 4-H-1-benzopryan-4-one derivatives as inhibitors of smooth muscle cell proliferation” (priority 1999, dated 2002):
“Also recorded” adds a separate entry of the source. Where two headings read alike, the source gives them in different places.

Columns and labels:
neointimal formation = conditions: instilled into the carotid artery at the time of injury; cited from earlier work
[1] = tested on: Erk1 (p44 MAP kinase) and Erk2 (p42 MAP kinase); experiment: In-gel kinase assay (myelin basic protein) in HASMC; assay type: cell-based, human; conditions: growth factors 30 min
Method: In-gel kinase assay—Quiescent HASMC were treated with growth factors for 30 min and total cell lysates were prepared as described for Western blotting. In some experiments, HASMC were pretreated for 60 min with 30 μmol/L PD98059, flavopiridol, or vehicle. Equal amounts of proteins (50 μg/lane) were resolved on a polyacrylamide gel that was copolymerized with 350 μg/ml myelin basic protein. The gel was treated with [γ-^32P]ATP and autoradiography was performed as described^19.

[2] = tested on: Erk1 (p44 MAP kinase) and Erk2 (p42 MAP kinase); experiment: Western blot of phosphorylated Erk1/Erk2 in HASMC; assay type: cell-based, human; conditions: growth factors 30 min
Method: (§1) Western blot analysis—Quiescent HASMC were treated in the presence or absence of growth factors and/or flavopiridol as indicated. Western blot analysis was performed as previously described^18. The primary antibodies were: a polyclonal anti-human cyclin D1 antibody (M-20, Santa Cruz), a monoclonal anti-human proliferating cell nuclear antigen (PCNA) antibody (PC10, Sigma), a phosphorylation-specific p44/42 (Erk1/Erk2) MAP kinase monoclonal antibody (New England Biolabs), and a monoclonal anti-Rb antibody (G3-245, Pharmigen), which recognizes the phosphorylated (pRb) and highly phosphorylated (ppRb) Rb species. For immunoblotting studies, experiments were repeated at least three times.

cyclin D1 = experiment: Western blot of cyclin D1 in HASMC; assay type: cell-based, human; conditions: flavopiridol 75 nmol/L pretreatment, 24 h
Method: as §1

[3] = tested on: Human aortic smooth muscle cells (HASMC); experiment: Trypan-blue exclusion viability; assay type: cell-based; conditions: flavopiridol 75 nmol/L, quiescent HASMC
Method: Trypan-blue exclusion—HASMC were grown in 5-cm dishes at low confluence and growth-arrested as described. Cells were treated with flavopiridol (75 nmol/L) or tumor necrosis factor-[…] (TNF-[…]; 50 ng/ml) for the indicated times. Following the removal of the medium, 0.4% trypan blue in phosphate-buffered saline was added to the dishes. After 5 min, the cells in the dishes were counted under the microscope. Blue cells were counted as nonviable cells.

[4] = tested on: Human aortic smooth muscle cells (HASMC); experiment: Cell proliferation ELISA (BrdU incorporation); assay type: cell-based; conditions: flavopiridol 75 nmol/L; bFGF- and thrombin-induced
Method: Cell culture—Human aortic smooth muscle cells (HASMC) were obtained from Clonetics and were cultured as previously described^18. Cells were used at passages 5-9. Prior to performing experiments, cells were growth-arrested at 80% confluence for 48 h with medium containing 0.2% fetal bovine serum. Cell proliferation ELISA—Cell proliferation was measured by ELISA (Amersham Life Science). HASMC were grown in gelatin-coated 96-well plates and made quiescent. Cells were treated with 10 ng/ml bFGF, 2 U/ml thrombin, or vehicle for 24 h. Flavopiridol (75 nmol/L) was administered 1 h prior to growth factor treatment. 5-Bromo-2′-deoxyuridine (BrdU) was added to a final concentration of 10 μmol/L during the last 2 h of treatment. BrdU incorporation was measured as described^19. Results are expressed as mean±SEM for 12 samples per condition from two independent experiments.

[5] = in vivo; cited from earlier work
[6] = doses below the toxic threshold, Phase I human studies; cited from earlier work
PCNA = experiment: Western blot of PCNA in HASMC; assay type: cell-based, human; conditions: flavopiridol 75 nmol/L pretreatment, 24 h
Method: as §1

[7] = tested on: rat carotid artery neointimal formation; conditions: for PCNA-positive nuclei in the neointima: 5 mg/kg orally
Method: Rat carotid injury model—Injury to the rat carotid artery was performed essentially as described^2. Adult male Sprague-Dawley rats (400-500 g, Zivic-Miller) were anesthetized with an intraperitoneal injection of ketamine ([…]) and xylazine (4 mg/kg). The left internal carotid was then cannulated with a 2F embolectomy catheter. The balloon was inflated with saline and withdrawn across the artery three times to produce a distending and denuding injury. The right carotid artery was uninjured and served as a control of injury for each animal. Immediately following recovery from anesthesia and for four additional days thereafter, rats were administered flavopiridol (5 mg/kg in water) or water by gavage in a blinded manner. […] At specified time points after carotid injury, rats were anesthetized as above and perfusion-fixed systemically with 4% paraformaldehyde in phosphate-buffered saline. Right and left carotid arteries were removed and distended by injection of 4% paraformaldehyde through the lumen, after which they were dehydrated and stored in 70% ethanol at 4° C. Immunohistochemistry was performed as previously described^18, using the monoclonal PCNA antibody and a polyclonal anti-human Cdk2 antibody (M2-G, Santa Cruz).
Image analysis—The extreme distal and proximal regions of each artery (approx. 500 μm) were removed. Ten intermediate cross-sections (8 μm each) taken 500 μm apart were analyzed from each artery. Slides were fixed and stained with hematoxylin and eosin as previously described^18. Using a Nikon Diaphot 300 microscope and a 4× objective, each cross-section was captured as a digital image using a Hamamatsu C5985 video camera and TCPro 2.41 (Coreco, Inc.). Medial and neointimal areas were determined using NIH Image software. Medial and neointimal boundaries were determined by one slide reviewer (A.M.) and verified in a blinded fashion by a second reviewer (C.P.). Lesion size was expressed as the neointima/media ratio. Results for each group were expressed as the mean±SEM.

[8] = tested on: Human aortic smooth muscle cells (HASMC); experiment: Cell counts of growth-arrested HASMC; assay type: cell-based; conditions: bFGF 10 ng/ml, flavopiridol 75 nmol/L, three days; bFGF alone 3-fold increase
Method: Cell culture—Human aortic smooth muscle cells (HASMC) were obtained from Clonetics and were cultured as previously described^18. Cells were used at passages 5-9. Prior to performing experiments, cells were growth-arrested at 80% confluence for 48 h with medium containing 0.2% fetal bovine serum. Cell counts—Growth-arrested HASMC grown to 50% confluence in 6-well plates were treated with or without flavopiridol (75 nmol/L) or bFGF (10 ng/ml). At intervals after treatment, cells were trypsinized and cell numbers determined using a hemocytometer.

Rb = experiment: Western blot of Rb phosphorylation in HASMC; assay type: cell-based, human; conditions: flavopiridol 75 nmol/L, 24 h
Method: as §1

Cdc2 and Cdk2 = experiment: Cdk activity (histone H1 kinase assay) in HASMC lysates; assay type: cell-based, human; conditions: flavopiridol 75 nmol/L pretreatment, 24 h
Method: Cdk activity—Quiescent HASMC were treated with agonists and inhibitors for 24 h and total cell lysates were prepared as described for Western blotting. The kinase assay was performed with a histone H1 kinase assay kit (Upstate Biotechnology) following the manufacturer's instructions. In brief, 10 μl of peptide inhibitors for protein kinase C (2 μmol/L) and protein kinase A (2 μmol/L), 100 μg cell lysate, 10 μl assay buffer and 10 μl of a mixture containing 75 μmol/L magnesium chloride, 500 μmol/L ATP and 1 μCi/ml [γ-^32P]ATP were mixed in a microcentrifuge tube. After incubation at 30° C. for 10 min, aliquots were pipetted onto phosphocellulose papers. The papers were washed in 0.75% phosphoric acid, followed by measurement of cpm in a scintillation counter (Beckman). Results are expressed as the mean±SEM for three samples and are representative of three independent experiments.

COc1ccc(CNc2nc(N(CCO)CCO)nc3c2ncn3C(C)C)cc1 [CVT-313]
neointimal formation (neointimal formation): can also inhibit neointimal formation

COc1cccc(-c2cc(=O)c3ccccc3o2)c1N [PD98059, reference compound]
thrombin- and bFGF-induced Erk1 and Erk2 activity (in-gel kinase) ([1]; PD98059 30 μmol/L pretreatment 60 min): inhibitable
thrombin- and bFGF-induced phosphorylation of Erk1 and Erk2 ([2]; PD98059 30 μmol/L): blocked

CN1CC[C@H](c2c(O)cc(O)c3c(=O)cc(-c4ccccc4Cl)oc23)[C@H](O)C1 [flavopiridol, (−)-cis, -5,7-dihydroxy-2-(2-chlorophenyl)-8-[4-(3-hydroxy-1-methyl)piperidinyl]-4H-benzopyran-4-one]
bFGF- and thrombin-induced upregulation of cyclin D1 protein (cyclin D1): completely blocked
HASMC viability (trypan blue exclusion) [3]: does not decrease HASMC viability
HASMC viability (trypan blue exclusion) ([3]; listed as Flavopiridol): no effect
inhibition of SMC proliferation [4]: near complete inhibition
biological half-life [5]: 2.5 hrs
median serum concentrations [6]: 425 nmol/L
thrombin- and bFGF-induced Erk1 and Erk2 activity (in-gel kinase) ([1]; flavopiridol 75 nmol/L): no effect
growth factor-induced increased expression of PCNA (PCNA): blocked
Cdk2-positive cells in the neointima vs untreated rats ([7]; 7 and 14 days after injury, 5 mg/kg by gavage): much less common
reduction of neointimal area ([7]; 7 days after injury, 5 mg/kg by gavage): 35%
PCNA-positive nuclei in the neointima ([7]; 7 days after injury, untreated 31.1±7.2%): 11.8±1.5%
reduction of neointimal area ([7]; 14 days after injury, 5 mg/kg by gavage): 39%
PCNA-positive nuclei in the neointima ([7]; 14 days after injury): 10.4±2.0%
signs of toxicity related to drug administration ([7]; rat, in vivo, 5 mg/kg): no overt signs of toxicity
bFGF-induced increase in cell number [8]: efficiently blocked
thrombin- and bFGF-induced hyperphosphorylation of Rb (Rb): inhibited; also recorded: blocked
bFGF- and thrombin-induced increases in histone H1 kinase (cyclin-dependent kinase) activity (Cdc2 and Cdk2): totally blocked; also recorded: inhibited
thrombin- and bFGF-induced phosphorylation of Erk1 and Erk2 ([2]; flavopiridol 75 nmol/L): no effect
